According to PubChem BioAssay (NCI):
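All cell lines were grown in 96-well plates and treated with compound for 48 hours. TGI denotes the concentration required for complete inhibition of growth.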

Assays:
Assay in all cases: growth of human tumour cells (NCI), 48 h
RPMI-8226 leukemia = tested on: RPMI-8226 leukemia
HT29 colon = tested on: HT29 colon
SK-MEL-2 melanoma = tested on: SK-MEL-2 melanoma
EKVX NSCLC = tested on: EKVX NSCLC
KM20L2 colon = tested on: KM20L2 colon
CCRF-CEM leukemia = tested on: CCRF-CEM leukemia
MALME-3M melanoma = tested on: MALME-3M melanoma
UACC-257 melanoma = tested on: UACC-257 melanoma
U251 CNS = tested on: U251 CNS
UO-31 renal = tested on: UO-31 renal
SK-MEL-28 melanoma = tested on: SK-MEL-28 melanoma
IGROV1 ovarian = tested on: IGROV1 ovarian
HCT-15 colon = tested on: HCT-15 colon
A498 renal = tested on: A498 renal
XF 498 CNS = tested on: XF 498 CNS
RXF-631 renal = tested on: RXF-631 renal
HCC-2998 colon = tested on: HCC-2998 colon
CAKI-1 renal = tested on: CAKI-1 renal
HOP-62 NSCLC = tested on: HOP-62 NSCLC
HL-60(TB) leukemia = tested on: HL-60(TB) leukemia
NCI-H460 lung = tested on: NCI-H460 lung
RXF 393 renal = tested on: RXF 393 renal
SNB-78 CNS = tested on: SNB-78 CNS
SF-539 CNS = tested on: SF-539 CNS
OVCAR-8 ovarian = tested on: OVCAR-8 ovarian
OVCAR-3 ovarian = tested on: OVCAR-3 ovarian
SW-620 colon = tested on: SW-620 colon
DMS 273 small cell lung = tested on: DMS 273 small cell lung
SNB-75 CNS = tested on: SNB-75 CNS
KM12 colon = tested on: KM12 colon
ACHN renal = tested on: ACHN renal
A549 NSCLC = tested on: A549 NSCLC
LXFL 529 NSCLC = tested on: LXFL 529 NSCLC
M14 melanoma = tested on: M14 melanoma
K-562 leukemia = tested on: K-562 leukemia
OVCAR-4 ovarian = tested on: OVCAR-4 ovarian
HCT-116 colon = tested on: HCT-116 colon
NCI-H23 lung = tested on: NCI-H23 lung
SK-OV-3 ovarian = tested on: SK-OV-3 ovarian
DLD-1 colon = tested on: DLD-1 colon
786-0 renal = tested on: 786-0 renal
TK-10 renal = tested on: TK-10 renal
DMS 114 small cell lung = tested on: DMS 114 small cell lung
MOLT-4 leukemia = tested on: MOLT-4 leukemia
M19-MEL melanoma = tested on: M19-MEL melanoma
OVCAR-5 ovarian = tested on: OVCAR-5 ovarian
SF-295 CNS = tested on: SF-295 CNS
UACC-62 melanoma = tested on: UACC-62 melanoma
NCI-H226 lung = tested on: NCI-H226 lung
SK-MEL-5 melanoma = tested on: SK-MEL-5 melanoma
COLO 205 colon = tested on: COLO 205 colon
LOX IMVI melanoma = tested on: LOX IMVI melanoma
HOP-92 NSCLC = tested on: HOP-92 NSCLC
HOP-18 NSCLC = tested on: HOP-18 NSCLC
SF-268 CNS = tested on: SF-268 CNS
SNB-19 CNS = tested on: SNB-19 CNS
NCI-H522 lung = tested on: NCI-H522 lung
SN12C renal = tested on: SN12C renal
SR leukemia = tested on: SR leukemia

Measured: TGI

Cc1ccc(S(=O)(=O)c2ccccc2[N+](=O)[O-])cc1
not listed: COLO 205 colon | LOX IMVI melanoma | HOP-92 NSCLC | HOP-18 NSCLC | SF-268 CNS | SNB-19 CNS | NCI-H522 lung | SN12C renal | SR leukemia
> 100 µM: all other assays above

NCc1cccc(O)c1O
not listed: IGROV1 ovarian | HCC-2998 colon | SF-539 CNS | NCI-H23 lung
> 100 µM: all other assays above
